In brackets after ≈: the same amount, converted by molar mass. Read-outs that look alike come from different tables or passages of the source. Peptide text beside a SMILES is read from it.
Assays:
S. pneumoniae = assay type: cell-based, Streptococcus pneumoniae
Procedure: In certain embodiments the MIC assays are performed as described herein in the Examples. For each organism, the media and growth conditions utilized is detailed in Table 8.
In certain embodiments the MIC assays are performed as follows: For each organism, the media and growth conditions utilized is detailed in Table 8.

Candida albicans = test: Binding of targeting peptides to Candida albicans; conditions: tested at 3.13, 6.25, 12.5 and 25.0 μM in 1× PBS or HEPES/NaCl/MgCl2/0.1% CTAB
Procedure: The peptides in Table 6 were tested for binding efficiency at 3.13, 6.25, 12.5 and 25.0 μM concentrations in 1× phosphate-buffered saline or 20 mM HEPES (4-(2-hydroxyethyl)-1-piperazineethanesulfonic acid), 150 mM sodium chloride, 1 mM magnesium chloride and 0.1% CTAB.

[1] = S. pneumoniae, TSB supplemented with 5% yeast extract, 37° C., 10% CO2, inoculum 10^6 CFU/ml, 18-24 h or 48 h

Compound	Target(s): form of Candida albicans bound (Candida albicans)	other results
CC[C@H](C)[C@H](NC(=O)[C@@H](NC(=O)[C@@H](NC(=O)[C@@H]1CCCN1C(=O)[C@@H](NC(=O)[C@H](CCC(=O)O)NC(=O)[C@H](CC(=O)O)NC(=O)[C@H](CC(=O)O)NC(=O)[C@H](CC(=O)O)NC(=O)[C@H](CCC(N)=O)NC(=O)[C@H](Cc1ccccc1)NC(=O)[C@H](CC(=O)O)NC(=O)[C@H](CCC(=O)O)NC(=O)[C@@H](NC(=O)[C@H](CCC(=O)O)NC(=O)[C@H](CCC(=O)O)NC(=O)CNC(=O)[C@@H](NC(=O)[C@H](Cc1ccccc1)NC(=O)[C@@H]1CCCN1C(=O)[C@H](CCCCN)NC(=O)[C@H](CCC(N)=O)NC(=O)[C@@H](N)Cc1ccccc1)[C@@H](C)O)C(C)C)[C@@H](C)CC)[C@@H](C)O)[C@@H](C)CC)C(=O)O [PF-437] (H-FQKPFTGEEVEDFQDDDEIPTII-OH; N-terminus and C-terminus assumed)	–	MIC (S. pneumoniae): 50 µM (≈ 136 µg/mL)
CC[C@H](C)[C@H](NC(=O)[C@H](CC(C)C)NC(=O)[C@@H]1CCCN1C(=O)[C@@H]1CCCN1C(=O)[C@H](CCCCN)NC(=O)[C@@H](NC(=O)[C@H](Cc1ccc(O)cc1)NC(=O)[C@H](CC(C)C)NC(=O)[C@H](CO)NC(=O)[C@H](CCC(N)=O)NC(=O)[C@H](CCSC)NC(=O)[C@@H](N)C(C)C)C(C)C)C(=O)N[C@@H](CC(C)C)C(=O)N[C@H](C(=O)N[C@H](C(=O)N[C@@H](CCCCN)C(=O)N[C@@H](CC(C)C)C(=O)N[C@@H](C)C(=O)N[C@@H](CCC(N)=O)C(=O)N[C@@H](CCC(N)=O)C(=O)N[C@@H](CC(N)=O)C(=O)O)[C@@H](C)O)C(C)C [PF-511] (H-VMQSLYVKPPLILVTKLAQQN-OH; N-terminus and C-terminus assumed)	–	MIC (S. pneumoniae; [1]): 50 µM (≈ 119 µg/mL)
CC[C@H](C)[C@H](NC(=O)[C@H](CCC(=O)O)NC(=O)[C@@H]1CCCN1C(=O)[C@H](CCSC)NC(=O)[C@H](Cc1ccccc1)NC(=O)[C@@H](N)CO)C(=O)N[C@@H](CCC(N)=O)C(=O)N[C@@H](CCCCN)C(=O)N[C@@H](CC(N)=O)C(=O)N[C@H](C(=O)N[C@H](C(=O)N1CCC[C@H]1C(=O)N[C@H](C(=O)N[C@@H](CCC(N)=O)C(=O)N[C@@H](CCSC)C(=O)N[C@@H](CCCCN)C(=O)O)[C@@H](C)O)[C@@H](C)CC)[C@@H](C)O [PF-512] (H-SFMPEIQKNTIPTQMK-OH; N-terminus and C-terminus assumed)	–	MIC (S. pneumoniae; [1]): 50 µM (≈ 94.7 µg/mL)
CC(C)C[C@H](NC(=O)[C@H](CCCCN)NC(=O)CNC(=O)[C@@H](N)CS)C(=O)N[C@@H](CC(C)C)C(=O)N[C@@H](CCC(=O)O)C(=O)N[C@@H](CCC(N)=O)C(=O)N[C@@H](CCCCN)C(=O)N[C@@H](CC(N)=O)C(=O)N[C@@H](Cc1ccccc1)C(=O)N[C@@H](Cc1ccccc1)C(=O)N[C@@H](CC(C)C)C(=O)N[C@@H](CCCCN)C(=O)N[C@H](C(=O)N[C@@H](CCCNC(=N)N)C(=O)O)[C@@H](C)O [PF-521] (H-CGKLLEQKNFFLKTR-OH; N-terminus and C-terminus assumed)	–	MIC (S. pneumoniae): 50 µM (≈ 91.3 µg/mL)
CC(C)C[C@H](NC(=O)[C@H](CC(C)C)NC(=O)[C@H](Cc1c[nH]cn1)NC(=O)[C@H](CC(N)=O)NC(=O)[C@H](CCCCN)NC(=O)[C@H](CC(C)C)NC(=O)[C@H](CO)NC(=O)[C@H](CCCNC(=N)N)NC(=O)[C@H](CO)NC(=O)[C@H](C)NC(=O)[C@H](CCC(N)=O)NC(=O)[C@H](CCCCN)NC(=O)[C@H](CO)NC(=O)[C@H](C)NC(=O)[C@H](CCC(N)=O)NC(=O)[C@H](CCCCN)NC(=O)[C@H](CO)NC(=O)[C@H](C)NC(=O)[C@H](CCC(N)=O)NC(=O)[C@H](CCCCN)NC(=O)[C@H](CO)NC(=O)[C@H](C)NC(=O)[C@H](CCC(N)=O)NC(=O)[C@H](CCCCN)NC(=O)[C@H](CO)NC(=O)[C@H](C)NC(=O)[C@H](CCC(N)=O)NC(=O)[C@H](CCCCN)NC(=O)[C@H](CO)NC(=O)[C@H](C)N)C(=O)O [PF-523] (H-ASKQASKQASKQASKQASKQASRSLKNHLL-OH; N-terminus and C-terminus assumed)	–	MIC (S. pneumoniae): 50 µM (≈ 161 µg/mL)
CC[C@H](C)[C@H](NC(=O)[C@H](CCCNC(=N)N)NC(=O)[C@H](CO)NC(=O)[C@H](CC(C)C)NC(=O)[C@H](C)NC(=O)[C@H](C)NC(=O)[C@H](CC(C)C)NC(=O)[C@@H](NC(=O)[C@@H]1CCCN1C(=O)[C@H](CCCCN)NC(=O)[C@H](Cc1c[nH]cn1)NC(=O)[C@H](Cc1ccc(O)cc1)NC(=O)[C@H](CS)NC(=O)[C@@H](NC(=O)[C@H](CCCNC(=N)N)NC(=O)[C@@H]1CCCN1C(=O)[C@H](C)NC(=O)[C@H](CC(=O)O)NC(=O)[C@@H]1CCCN1)[C@@H](C)O)[C@@H](C)CC)C(=O)N[C@H](C(=O)N[C@H](C(=O)N[C@H](C(=O)N[C@@H](CC(=O)O)C(=O)N[C@@H](CCCNC(=N)N)C(=O)O)[C@@H](C)O)C(C)C)C(C)C [PF-524] (H-PDAPRTCYHKPILAALSRIVVTDR-OH; N-terminus and C-terminus assumed)	–	MIC (S. pneumoniae): 50 µM (≈ 135 µg/mL)
AIEGVIKKGACFKLLRHEMF [PF-167]	yeast cells	–
DLRKAK (VVRRFQGM; Antimicrobial peptide and/or targeting peptide) [PF-024]	hyphae	–
EILNNNQVIKELTMKYKTQFESNLGGWTARARR [PF-580]	hyphae	–
EVYSSPTNNVAITVQNN [PF-178]	hyphae	–
GGTKEIVYQRG [1T-68]	yeast cells	–
GVGIGFIMMGVVGYAVKLVHIPIRYLIV [PF-770]	hyphae	–
HARAAVGVAELPRGAAVEVELIAAVRP [1T-65]	hyphae	–
HSSHL (HARAAVGVAELPRGAAVEVELIAAVRP; Antimicrobial peptide and/or targeting peptide) [PF-060]	hyphae	–
KLRSASKKSLQEKSCGIMPEKPAG [PF-206]	hyphae	–
LGLTAGVAYAAQPTNQPTNQPTNQPTNQPTNQPTNQPRW [PF-520]	–	MIC (S. pneumoniae; [1]): 50 µM
LVRLA (NILFGIIGFVVAMTAAVIVTAISIAK; Antimicrobial peptide and/or targeting peptide) [PF-636]	hyphae	–
MIHLTKQNTMEALHFIKQFYDMFFILNFNV [PF-040]	hyphae	–
MPKARPVNHNKKKSKITIKSNFTLFYMFNP [PF-634]	hyphae	–
NILFGIIGFVVAMTAAVIVTAISIAK [PF-543]	hyphae	–
NRQAQGERAHGEQQG [1T-70]	yeast cells	–
RFFNFEIKKSTKVDYVFAHVDLSDV [PF-051]	hyphae	–
RLARGRPTNLCGRRG [PF-170]	yeast cells	–
RLTSNQFLTRITPFVFAQH [PF-176]	yeast cells	–
SKFELVNYASGCSCGADCKCASETECKCASKK [PF-761]	hyphae	–
VVRRFQGM [PF-141]	hyphae	–
VYRHLRFIDGKLVEIRLERK [1T-36]	hyphae	–
